Test results as given in patent US20250009695A1, “COMPOSITIONS AND METHODS FOR PROMOTING GLYCOGEN SYNTHASE ACTIVITY AND AUGMENTING GLYCOGEN STORAGE CAPABILITY” (NANJING NUTRABUILDING BIO-TECH CO., LTD., priority 2021, published 2025).

Legend:
glycogen synthetase = assay: Effect of BAIBA on muscle glycogen synthetase content in normal mice (ELISA kits); assay type: in vivo, C57 mice; conditions: L-BAIBA administration, oral gavage 2 weeks, soleus, FIG. 4
Procedure: (§1) SPF-grade male C57 mice (8 weeks old) were purchased from Nanjing Qinglongshan Laboratory Animal Breeding Center. Mice were housed individually in a steel cage in a room at 24° C. with a 12:12 h (Light:Dark) photoperiod and standard diet. Food and water were provided ad libitum. Forty mice were randomly divided into five groups. Control Group: Receiving neither exercise nor L-BAIBA treatment. Exercise Group: Receiving only exercise and no L-BAIBA treatment. BAIBA Group: Receiving only L-BAIBA treatment and no exercise. Pre-workout Group: Receiving L-BAIBA treatment before exercise. Post-workout Group: Receiving L-BAIBA treatment after exercise. Samples were administered orally (gavage volume was 0.1 mL/10 g per mouse) via a gavage tube for 2 weeks.
The exercise consisted of treadmill running at a speed of 3.0 m/min with no inclination of the treadmill. Mice were allowed to freely explore the treadmill until each mouse had explored its lane and the treadmill was turned on with a slow increase in the speed until animals begin running at set speed. During the first week of the treatment period, as an introduction the mice were forced to running exercise for 8 minutes. Subsequently, the exercise duration was increased to 9 minutes during the following week. The exercise duration was finally set to 10 minutes daily for the rest of weeks. […]

[1] = Effect of oral BAIBA administration on liver and skeletal muscle glycogen levels in obese (HFD) mice; assay type: in vivo; conditions: for hepatic glycogen levels (change, in words) / muscle glycogen levels (change, in words): HFD mice, better than exercise alone; for Liver glycogen / Muscle glycogen: obese mice on HFD, oral, week 9-16, P < 0.05 vs Model; for Liver glycogen: main lobe of liver; for Muscle glycogen: soleus muscle
Source text: Post quarantine, animals were acclimatized for one week and subsequently the animals were randomized based on body weight stratification. Initially, mice were allocated broadly into two groups with one group receiving the Normal Diet (ND) representing normal subjects and the other receiving a defined High Fat Diet (HFD) representing obese subjects. The HFD was a defined lard-based diet procured from Research Diets, New Jersey, USA (Product No.—D12492, with 60 Kcal % from fat, 20 Kcal % from proteins, and 20 Kcal % from carbohydrates; Lot no. 20050105 and expiry date 30 Nov. 2020). The ND was a defined control diet procured from Hylasco Biotechnology Pvt. Ltd, manufactured by PMI Nutrition International (Batch no. MAY06202 and expiry date February 2021) containing similar nutrients as HFD but with 13 Kcal % from fat, 17 Kcal % from proteins, and […].
The mice in the respective groups were put on ND and HFD for 8 weeks starting at age of ˜8 weeks. Food was offered twice a week by replacing the left-over feed with fresh feed and total weekly feed consumption was calculated and expressed as g feed/day/animal. Bodyweight was recorded once a week. At the end of 8 weeks (Day 57), mean body weight was measured, and animals were randomized based on body weight stratification and grouped separately into respective ND and HFD groups shown in the following experimental design. After the feeding/induction period (Week 1 to 8), the treatment period was from Week 9 to Week 16. A total of 36 mice were randomly grouped into six groups with n=6 in each group. Control Group: Normal mice, maintained on normal diet for 8 weeks, receiving neither exercise nor L-BAIBA treatment. Model Group: Obese mice, maintained on HFD for 8 weeks, receiving neither exercise nor L-BAIBA treatment. Exercise Group: Obese mice, maintained on HFD for 8 weeks, receiving only exercise and no L-BAIBA treatment. BAIBA Group: Obese mice, maintained on HFD for 8 weeks, receiving only LBAIBA treatment and no exercise. Exercise+BAIBA Group: Obese mice, maintained on HFD for 8 weeks, receiving L-BAIBA treatment and exercise.
A regular treadmill (PowerMax) used by humans was availed for subjecting mice to daily exercise. A special lane box made of Perspex was used to fabricate the treadmill's running platform, forming a modified 6-lane rodent treadmill allowing 6 animals to run simultaneously. The mice in the specified groups were exercised daily throughout the treatment period (week 9-16). Exercise consisted of treadmill running at a speed 3.0 m/min with no inclination of the treadmill. Mice were allowed to freely explore the treadmill until each mouse had explored its lane and the treadmill was turned on with a slow increase in the speed until animals begin running at set speed. During the first week of the treatment period, as an introduction the mice were forced to running exercise for 8 minutes. Subsequently, the exercise duration was increased to 9 minutes during the following week. The exercise duration was finally set to 10 minutes daily for the rest of weeks. Exercise took place in a room separated from the actual housing room to which all mice were transferred and kept during the exercise procedures in order to minimize environmental confounders among the mice not subjected to the exercise protocol. […] Entire procedure was supervised by study personnel and no abnormal behavior of animals was observed. Forced treadmill exercise was carried out at preferred lux and noise free conditions.
After completion of 8 weeks of experimentation (at the end of treatment on the day 114), animals were euthanized using an overdose of isoflurane (20% v/v in propylene glycol in a glass vacuum desiccator). The whole soleus muscle tissues and a sample of the main lobe of the liver were used to measure glycogen content using a modified protocol described in Methods in Enzymology Vol. III (Colowick and Kaplan, 1957).

[2] = Effect of BAIBA on liver and skeletal muscle glycogen content in normal mice (ELISA kits); assay type: in vivo, C57 mice; conditions: oral gavage 2 weeks, compared to Exercise group; for glycogen levels in liver tissue (change, in words): FIG. 1; for glycogen levels in muscle tissue (change, in words): FIG. 3
Procedure: as §1
The exercise consisted of treadmill running at a speed of 3.0 m/min with no inclination of the treadmill. Mice were allowed to freely explore the treadmill until each mouse had explored its lane and the treadmill was turned on with a slow increase in the speed until animals begin running at set speed. During the first week of the treatment period, as an introduction the mice were forced to running exercise for 8 minutes. Subsequently, the exercise duration was increased to 9 minutes during the following week. The exercise duration was finally set to 10 minutes daily for the rest of weeks.
After 30 minutes of exercise on day 14th, mice were injected with 0.1 to 0.3 ml 1% thiopental sodium intraperitoneally in order to general anesthesia. The soleus of the hind limbs of mice and liver were taken to detect the content of glycogen contents and glycogen synthetase with ELISA Kits.

[3] = combination of L-BAIBA and exercise
[4] = L-BAIBA treatment and daily treadmill exercise
[5] = L-BAIBA treatment only, no exercise
[6] = Post-workout Group (L-BAIBA after exercise)
[7] = Pre-workout Group (L-BAIBA before exercise)

CC(CN)C(=O)O (stereo not drawn) [BAIBA, β-aminoisobutyric acid]
muscle glycogen synthetase content (change, in words) (glycogen synthetase): significant increase
hepatic glycogen levels (change, in words) ([1]; L-BAIBA administration alone): significant increase
muscle glycogen levels (change, in words) ([1]; L-BAIBA administration alone): significant increase
hepatic glycogen levels (change, in words) [1, 3]: significant increase
muscle glycogen levels (change, in words) [1, 3]: significant increase
Liver glycogen [1, 4]: 9.95 ± 0.61 mg/g tissue
Muscle glycogen [1, 4]: 0.29 ± 0.08 mg/g tissue
Liver glycogen [1, 5]: 9.66 ± 1.19 mg/g tissue
Muscle glycogen [1, 5]: 0.31 ± 0.06 mg/g tissue
glycogen levels in liver tissue (change, in words) [2, 6]: increase
glycogen levels in muscle tissue (change, in words) [2, 6]: increase
glycogen levels in liver tissue (change, in words) [2, 7]: increase
glycogen levels in muscle tissue (change, in words) [2, 7]: increase
